Reference: patent publication US8084467B2, “Pyrazole derivatives as cannabinoid receptor antagonists” (University of Connecticut, priority 2004, dated 2011)
Where “and” joins values, the source holds several entries; their conditions need not be identical. Equal entries are not always repeated. Where two headings read alike, the source gives them in different places.

Tests used:
CB2 receptor = target: T1, CB2 receptor (Mus musculus, UniProt P47936); experiment: CB2 receptor binding, mouse spleen membranes, same manner as the CB1 binding assay; conditions: for Ki: [3H] CP-55,940; for selectivity CB2: ratio of CB1 Ki to CB2 Ki
T1 construct: membranes were prepared from frozen mouse spleen; from tissue; host or cells: mouse spleen
Procedure: Some of the inventive analogs were tested for CB2 receptor binding affinity and for CB1 receptor affinity (to determine selectivity). […] The lower the Ki value the higher the binding affinity.
(§1) The treated membranes were subsequently used in the binding assay described below. Approximately 30 μg of membranes were incubated in silanized 96-well microtiter plate with TME containing 0.1% essentially fatty acid-free bovine serum albumin (BSA), 0.8 nM [^3H] […] Radioactivity was detected using MicroScint 20 scintillation cocktail added directly to the dried filterplates, and the filterplates were counted using a Packard Instruments Top-Count. […] Data collected from three independent experiments performed with duplicate determinations was normalized between 100% and 0% specific binding for [^3H] […] The normalized data was analyzed using a 4-parameter nonlinear logistic equation to yield IC50 values.
Silanized centrifuge tubes were used throughout to minimize receptor loss due to adsorption. The CB2 binding assay was conducted in the same manner as for the CB1 binding assay. The binding affinities (Ki) were also expressed in nanomoles (nM).

CB1 cannabinoid receptor = target: T2, CB1 cannabinoid receptor (Rattus norvegicus, UniProt P20272); experiment: CB1 receptor binding, rat forebrain membranes, [3H] CP-55,940 displacement; conditions: for Ki: 0.8 nM [3H] CP-55,940; for selectivity CB1: ratio of CB2 Ki to CB1 Ki
T2 construct: membranes were prepared from rat forebrain membranes; from tissue; host or cells: rat forebrain
Procedure: Some of the inventive analogs were tested for CB2 receptor binding affinity and for CB1 receptor affinity (to determine selectivity). […] The lower the Ki value the higher the binding affinity. […]
Membranes, previously frozen at −80° C., were thawed on ice. To the stirred suspension was added three volumes of TME (25 mM Tris-HCl buffer, 5 mM MgCl2 and 1 mM EDTA) at a pH 7.4. The suspension was incubated at 4° C. for 30 min. At the end of the incubation, the membranes were pelleted and washed three times with TME.
as §1

[1] = mouse spleen membranes, read-out: affinities Ki CB2
[2] = rat forebrain membranes, read-out: affinities Ki CB1
[3] = affinities Ki CB2, mouse spleen membranes
[4] = affinities Ki CB1, rat forebrain membranes

T1 sequence (P47936 whole entry): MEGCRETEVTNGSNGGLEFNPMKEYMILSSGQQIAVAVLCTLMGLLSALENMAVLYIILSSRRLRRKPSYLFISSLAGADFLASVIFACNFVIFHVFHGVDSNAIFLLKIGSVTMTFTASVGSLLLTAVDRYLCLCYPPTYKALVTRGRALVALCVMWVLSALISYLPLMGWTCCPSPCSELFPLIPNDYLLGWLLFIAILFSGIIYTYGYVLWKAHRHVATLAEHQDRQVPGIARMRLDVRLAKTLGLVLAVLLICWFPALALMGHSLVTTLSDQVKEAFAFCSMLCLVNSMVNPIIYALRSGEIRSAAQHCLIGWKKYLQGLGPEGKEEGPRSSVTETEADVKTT
T2 sequence (P20272 whole entry): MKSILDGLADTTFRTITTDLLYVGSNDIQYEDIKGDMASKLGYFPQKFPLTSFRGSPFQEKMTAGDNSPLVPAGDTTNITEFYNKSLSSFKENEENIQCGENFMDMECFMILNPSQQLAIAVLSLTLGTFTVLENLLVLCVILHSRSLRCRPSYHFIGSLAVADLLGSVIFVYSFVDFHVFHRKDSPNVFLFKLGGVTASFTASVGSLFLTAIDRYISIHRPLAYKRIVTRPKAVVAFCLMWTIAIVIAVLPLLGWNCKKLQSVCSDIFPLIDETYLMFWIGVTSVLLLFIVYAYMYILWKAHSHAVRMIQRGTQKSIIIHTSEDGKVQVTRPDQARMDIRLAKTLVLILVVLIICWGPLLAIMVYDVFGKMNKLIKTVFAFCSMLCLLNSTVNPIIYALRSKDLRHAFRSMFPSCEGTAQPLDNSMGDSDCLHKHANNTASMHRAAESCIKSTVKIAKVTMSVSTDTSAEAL

Structure (SMILES) | Ki (CB2 receptor; [1]) [nM] | selectivity CB2 (CB2 receptor) | Ki (CB1 cannabinoid receptor; [2]) [nM] | selectivity CB1 (CB1 cannabinoid receptor) | Ki (CB2 receptor; [3]) | Ki (CB1 cannabinoid receptor; [4])
Cc1c(C(=O)N(C)C2CCCCC2)nn(-c2ccc(Cl)cc2Cl)c1-c1ccc(-c2nnnn2C)cc1 [Compound 2-14] | 941 | 1.4 | 1270 |  |  | 
Cc1c(C(=O)N(C)C2CCCCC2)nn(-c2ccc(Cl)cc2Cl)c1-c1ccc(-c2nnn(C)n2)cc1 [Compound 2-15] | 551 |  | 105 | 5.2 |  | 
CN(C(=O)c1nn(-c2ccc(Cl)cc2Cl)c(-c2ccc(-c3nnn[nH]3)cc2)c1CO)C1CCCCC1 [Compound 2-16] | 1120 |  | 293 | 3.8 |  | 
CN(C(=O)c1nn(-c2ccc(Cl)cc2Cl)c(-c2ccc(-c3nnnn3C)cc2)c1CO)C1CCCCC1 [Compound 2-17] | 1410 |  | 1080 | 1.3 |  | 
CN(C(=O)c1nn(-c2ccc(Cl)cc2Cl)c(-c2ccc(-c3nnn(C)n3)cc2)c1CO)C1CCCCC1 [Compound 2-18] | 641 |  | 210 | 3.0 |  | 
O=C(Nc1nn(-c2ccc(Cl)cc2Cl)c(-c2ccc(Br)cc2)c1CO)NC1CCCCC1 [Compound 2-19] | 4920 |  | 9 | 546.7 |  | 
CN(C(=O)Nc1nn(-c2ccc(Cl)cc2Cl)c(-c2ccc(Br)cc2)c1CO)C1CCCCC1 [Compound 2-21] | 4470 |  | 296 | 15.1 |  | 
Cc1c(NC(=O)NC2CCCCC2)nn(-c2ccc(Cl)cc2Cl)c1-c1ccc(-c2cccnc2)cc1 [Compound 2-22] | 10900 |  | 29 | 374.6 |  | 
CN(C(=O)c1nn(-c2ccc(Cl)cc2Cl)c(-c2ccc(Br)cc2)c1CO)C1CCCCC1 [Compound 3-1] | 1800 |  | 29 | 62.1 |  | 
CN(C(=O)c1nn(-c2ccc(Cl)cc2Cl)c(-c2ccc(I)cc2)c1CO)C1CCCCC1 [Compound 3-2] |  |  |  | 29.3 | 528 nM | 18 nM
O=C(NN1CCCCC1)c1nn(-c2ccc(Cl)cc2Cl)c(-c2ccc(Br)cc2)c1CO [Compound 3-3] |  |  |  | 10.6 | 490 nM | 46 nM
CN(C(=O)c1nn(-c2ccc(Cl)cc2Cl)c(-c2ccc(-c3cccnc3)cc2)c1CO)C1CCCCC1 [Compound 3-4] | 759 |  | 227 | 3.3 |  | 
CN(C(=O)c1nn(-c2ccc(Cl)cc2Cl)c(-c2ccc(-c3ccncc3)cc2)c1CO)C1CCCCC1 [Compound 3-5] | 294 |  | 90 | 3.3 |  | 
Cc1c(C(=O)N(C)C2CCCCC2)nn(-c2ccc(Cl)cc2Cl)c1-c1ccc(-c2ccncc2)cc1 [Compound 3-6] | 3290 |  | 189 | 17.4 |  | 
O=C(Nc1nn(-c2ccc(Cl)cc2Cl)c(-c2ccc(Br)cc2)c1CBr)NC1CCCCC1 [Compound 3-7] | 136 |  | 38 | 3.6 |  | 
Cc1c(NC(=O)NC2CCCCC2)nn(-c2ccc(Cl)cc2Cl)c1-c1ccc(Br)cc1 [Compound 3-8] | 4320 |  | 6.8 | 635.2 |  | 
Cc1c(NC(=O)OC2CCCCC2)nn(-c2ccc(Cl)cc2Cl)c1-c1ccc(Br)cc1 [Compound 3-9] | 449 |  | 69 | 6.5 |  | 
Cc1c(NC(=O)NC2CCCCC2)nn(-c2ccc(Cl)cc2Cl)c1-c1ccc(I)cc1 [Compound 3-10] | 21800 |  | 26 | 838.1 |  | 
Cc1c(NC(=O)N(C)C2CCCCC2)nn(-c2ccc(Cl)cc2Cl)c1-c1ccc(Br)cc1 [Compound 3-11] | 917 |  | 29 | 31.6 |  | 
Cc1c(NC(=O)NC23CC4CC(CC(C4)C2)C3)nn(-c2ccc(Cl)cc2Cl)c1-c1ccc(Br)cc1 [Compound 3-12] | 756 |  | 259 | 2.9 |  | 
Cc1c(NC(=O)N2CCCCC2)nn(-c2ccc(Cl)cc2Cl)c1-c1ccc(Br)cc1 [Compound 3-13] | 284 |  | 47 | 6.0 |  | 
Cc1c(NC(=O)C2CCCCC2)nn(-c2ccc(Cl)cc2Cl)c1-c1ccc(Br)cc1 [Compound 3-14] |  |  | 4230 | 6.4 | 27100 nM | 

Structure (SMILES) | Ki (CB2 receptor; [1]) [nM] | selectivity CB2 (CB2 receptor) | Ki (CB1 cannabinoid receptor; [2]) [nM] | selectivity CB1 (CB1 cannabinoid receptor) | Ki (CB2 receptor; [3]) | Ki (CB1 cannabinoid receptor; [4])
Cc1c(C(=O)N(C)C2CCCCC2)nn(-c2ccc(Cl)cc2Cl)c1-c1ccc(C#N)cc1 [Compound 3-15] | 10800 |  | 50 | 216.5 |  | 
Cc1c(C(=O)NN2CCCCC2)nn(-c2ccc(Cl)cc2Cl)c1-c1ccc(Br)cc1 [Compound 3-16] | 897 |  | 17 | 52.8 |  | 
O=C(NC1CCCCC1)c1nn(-c2ccc(Cl)cc2Cl)c(-c2ccc(Br)cc2)c1CBr [Compound 3-17] | 3480 |  | 46 | 75.5 |  | 
O=C(NC1CCCCC1)c1nn(-c2ccc(Cl)cc2Cl)c(-c2ccc(Br)cc2)c1CO [Compound 3-18] | 2120 |  | 6 | 353.3 |  | 
O=C(NN1CCCCC1)c1nn(-c2ccc(-c3cccnc3)cc2Cl)c(-c2ccc(-c3cccnc3)cc2)c1CO [Compound 3-19] | 1920 |  | 146 | 13.2 |  | 
O=C(NN1CCCCC1)c1nn(-c2ccc(-c3cccnc3)cc2Cl)c(-c2ccc(-c3cccnc3)cc2)c1CO [Compound 3-20] | 1680 |  | 154 | 10.9 |  | 
O=C(NN1CCCCC1)c1nn(-c2ccc(Cl)cc2Cl)c(-c2ccc(-c3cccnc3)cc2)c1CO [Compound 3-21] | 207 |  | 76 |  |  | 
N#Cc1ccc(-c2c(CO)c(C(=O)NN3CCCCC3)nn2-c2ccc(Cl)cc2Cl)cc1 [Compound 3-22] | 2740 |  | 64 | 42.8 |  | 
Cc1c(C(=O)NN2CCCCC2)nn(-c2ccc(Cl)cc2Cl)c1-c1ccc(C#N)cc1 [Compound 3-23] | 4690 |  | 22 | 213.3 |  | 
Cc1c(C(=O)NN2CCCCC2)nn(-c2ccc(Cl)cc2Cl)c1-c1ccc(C(=O)O)cc1 [Compound 3-24] | 934 |  | 738 | 1.3 |  | 
Cc1c(C(=O)NN2CCCCC2)nn(-c2ccc(Cl)cc2Cl)c1-c1ccc(C(N)=S)cc1 [Compound 3-25] | 127 |  | 86 | 1.5 |  | 
Cc1c(C(=O)NC2CC3CCC2(C)C3(C)C)nn(CCCCCCl)c1-c1ccccc1 (stereo not drawn) [Compound 4-1] |  | 2.4 |  |  | 2.51 nM and 2.5 nM | 5.9 nM and 6 nM
Cc1c(C(=O)NC23CC4CC(CC(C4)C2)C3)nn(CCCCCCl)c1-c1ccccc1 [Compound 4-2] |  | 1.8 |  |  | 0.704 nM and 0.8 nM | 1.42 nM and 1.4 nM
Cc1c(C(=O)Nc2ccc3ccccc3c2)nn(CCCCCCl)c1-c1ccccc1 [Compound 4-3] |  |  |  |  | 15.4 nM | 14.6 nM
Cc1c(C(=O)NC2C3CC4CC(C3)CC2C4)nn(CCCCCCl)c1-c1ccccc1 (stereo not drawn) [Compound 4-4] |  |  |  |  | 8.46 nM and 8.5 nM | 7.64 nM and 7.6 nM
Cc1c(C(=O)NCC23CC4CC(CC(C4)C2)C3)nn(CCCCCCl)c1-c1ccccc1 [Compound 4-5] |  | 3 |  |  | 6.65 nM and 6.6 nM | 19.8 nM and 20 nM
O=C(NC12CC3CC(CC(C3)C1)C2)c1cc(-c2ccccc2)n(CCCCCCl)n1 [Compound 4-6] |  | 2.5 |  |  | 4.79 nM and 4.8 nM | 12.2 nM and 12 nM
Cc1c(C(=O)NC2CC(C)C3CC2C3(C)C)nn(CCCCCCl)c1-c1ccccc1 (stereo not drawn) [Compound 4-7] |  | 1.7 |  |  | 2.76 nM and 2.8 nM | 4.73 nM and 4.7 nM
Cc1c(C(=O)NCC2CCC3CC2C3(C)C)nn(CCCCCCl)c1-c1ccccc1 (stereo not drawn) [Compound 4-8] |  | 2 |  |  | 0.615 nM and 0.6 nM | 1.22 nM and 1.2 nM
Cc1c(C(=O)NC23CC4CC(CC(C4)C2)C3)nn(CCCCCI)c1-c1ccccc1 [Compound 4-10] |  | 1.3 |  |  | 1.01 nM and 1 nM | 1.34 nM and 1.3 nM
Cc1c(C(=O)NC23CC4CC(CC(C4)C2)C3)nn(CCCCCN=[N+]=[N-])c1-c1ccccc1 [Compound 4-11] |  | 4 |  |  | 0.965 nM and 1 nM | 3.96 nM and 4 nM
